Data: paper PMC5590070, “Anti-Inflammatory, Antioxidant, Antibiotic, and Cytotoxic Activities of Tanacetum vulgare L. Essential Oil and Its Constituents” (Medicines, 2017)
≈ marks a conversion by molar mass, not a printed value.

Tested on: NO production in murine macrophage RAW 264.7 cells
Assay: Inhibition of NO production in LPS-stimulated RAW 264.7 macrophages (Griess reaction)
Type: cell-based
Conditions: Mus musculus, RAW264.7; 1 mM, positive control
Experimental: We evaluated the inhibition NO production by T. vulgare essential oil and compounds as described by Legault et al.. Control L-NAME was used as positive control. Murine macrophage RAW 264.7 cells were incubated with essential oil or dissolved compounds in DMSO and then stimulated with 100 ng·mL^−1 LPS and incubated at 37 °C. After 24 h, we collected the cell-free supernatants and immediately determined the NO concentration using the Griess reaction. We read the absorbance at 540 nm using an automated Varioskan Ascent plate reader (Labsystems, Milford, MA, USA), and quantified the presence of nitrite by comparing with a NaNO2 standard curve.

SMILES	inhibition at 1000 µM
COC(=O)[C@@H](N)CCCNC(N)=N[N+](=O)[O-] [L-NAME, reference compound]	64.1%

Same assay, conditions: Mus musculus, RAW264.7; inhibition of NO production, RAW 264.7, 100 ng·mL^−1 LPS, 24 h; read-out: Anti-Inflammation IC50

SMILES	IC50
C=C1CC/C=C(\C)CC[C@@H]2[C@@H]1CC2(C)C [β-Caryophyllene]	> 200 µg/mL
CC1=CC=C(C(C)C)CC1 [α-Terpinene]	46 ± 4 µg/mL (≈ 338 µM)
CC1=CCC(O)(C(C)C)CC1 (centres unmarked) [Terpinen-4-ol]	> 200 µg/mL
CC1=CCC(C(C)C)=CC1 [γ-Terpinene]	> 200 µg/mL
C=C1CCC2CC1C2(C)C (stereo not drawn) [β-Pinene]	46 ± 9 µg/mL (≈ 338 µM)

More lines, now with the values ahead:

IC50	SMILES
> 200 µg/mL	CC1(C)C2CCC1(C)C(O)C2 (centres unmarked) [Borneol]
30 ± 4 µg/mL (≈ 220 µM)	CC1=CCC2CC1C2(C)C (stereo not drawn) [α-Pinene]
> 200 µg/mL	CC12CCC(CC1=O)C2(C)C (centres unmarked) [Camphor]
> 200 µg/mL	CC12CCC(CC1)C(C)(C)O2 [1,8-Cineole]

Tested on: human skin fibroblasts WS1
Assay: Cell-based antioxidant DCFH-DA assay (tert-butylhydroperoxide-induced DCFH oxidation)
Conditions: Homo sapiens; inhibition of DCFH oxidation induced by tert-butylhydroperoxide, WS1 cells
Experimental: Antioxidant activity was evaluated using the DCFH-DA assay as described by Girard-Lalancette et al.. To assess antioxidant activity, we incubated the human skin fibroblasts WS1 for 1 h with a growing concentration of essential oil or dissolved compounds in DMSO. We then added 100 µL of 200 µM tert-butylhydroperoxide and immediately measured fluorescence as well as again after 90 min later. Measurements were performed on an automated plate reader (Fluoroskan Ascent FL, Labsystems, Milford, MA, USA) using an excitation wavelength of 485 nm and an emission wavelength of 530 nm.

SMILES	IC50
CC1(C)C2CCC1(C)C(O)C2 (centres unmarked) [Borneol]	> 200 µg/mL
C=C1CC/C=C(\C)CC[C@@H]2[C@@H]1CC2(C)C [β-Caryophyllene]	> 200 µg/mL
CC1=CCC2CC1C2(C)C (stereo not drawn) [α-Pinene]	3.4 ± 0.2 µg/mL (≈ 25 µM)
CC12CCC(CC1=O)C2(C)C (centres unmarked) [Camphor]	> 200 µg/mL
CC1=CC=C(C(C)C)CC1 [α-Terpinene]	> 200 µg/mL
CC1=CCC(O)(C(C)C)CC1 (centres unmarked) [Terpinen-4-ol]	> 200 µg/mL
CC12CCC(CC1)C(C)(C)O2 [1,8-Cineole]	> 200 µg/mL
C=C1CCC2CC1C2(C)C (stereo not drawn) [β-Pinene]	> 200 µg/mL

Tested on: Escherichia coli (ATCC 25922)
Assay: Antibacterial hydrophobic assay (resazurin)
Type: cell-based
Conditions: E. coli, 50% inhibition of bacterial growth
From the text: (§1) We tested the antibacterial activities of T. vulgare essential oil and compounds against gram-negative Escherichia coli (ATCC bacteria 25922) and gram-positive Staphylococcus aureus (ATCC bacteria 25923) using the antibacterial hydrophobic assay as described by Côté et al.. This new method was developed and used in this work as classical methods including disc diffusion and microdilution assays are sometimes inefficient for testing a matrix or compounds of a hydrophobic nature. Briefly, after microorganisms passed 16–18 h at 37 °C in a nutrient broth base (Difco), we transferred 20 µL methanol containing growing concentrations of essential oil and compounds (3.1 to 200 µg·mL^−1) onto nutrient agar of 96-well plates. We then added bacterial strains having a concentration of 5 × 10^3 colony forming units (CFU) per mL of nutrient broth. […] The blank consisted of culture medium only and was subtracted from all subsequent measurements of every other well. The 96-well plates were then incubated at 37 °C for 5 h to foster bacterial growth. We then added 100 µL of resazurin sodium salt solution having a concentration of 50 µg·mL^−1 (Sigma R-2127, St-Louis, MO, USA) to each well.

Antibacterial IC50 E. coli	SMILES
22 ± 1 µg/mL	CC12CCC(CC1=O)C2(C)C (centres unmarked) [Camphor]

Same assay, conditions: Escherichia coli, ATCC25922, E. coli, 50% inhibition of bacterial growth

SMILES	IC50
C=C1CC/C=C(\C)CC[C@@H]2[C@@H]1CC2(C)C [β-Caryophyllene]	> 200 µg/mL
CC1=CCC(O)(C(C)C)CC1 (centres unmarked) [Terpinen-4-ol]	> 200 µg/mL
C=C1CCC2CC1C2(C)C (stereo not drawn) [β-Pinene]	> 200 µg/mL

The remaining lines, values ahead:

IC50	SMILES
> 200 µg/mL	CC1(C)C2CCC1(C)C(O)C2 (centres unmarked) [Borneol]
22 to 26 µg/mL (≈ 145 to 171 µM)	CC12CCC(CC1=O)C2(C)C (centres unmarked) [Camphor]
> 200 µg/mL	CC12CCC(CC1)C(C)(C)O2 [1,8-Cineole]

Same assay, conditions: Escherichia coli, ATCC25922; read-out: Antibacterial IC50 E. coli

SMILES	IC50
CC1=CC=C(C(C)C)CC1 [α-Terpinene]	> 200 µg/mL
CC1=CCC(C(C)C)=CC1 [γ-Terpinene]	> 200 µg/mL

Tested on: Staphylococcus aureus (ATCC 25923)
Assay: Antibacterial hydrophobic assay (resazurin)
Type: cell-based
Conditions: S. aureus, 50% inhibition of bacterial growth
From the text: as §1

Antibacterial IC50 S. aureus	SMILES
26 ± 3 µg/mL	CC12CCC(CC1=O)C2(C)C (centres unmarked) [Camphor]

Same assay, conditions: Staphylococcus aureus, ATCC25923, S. aureus, 50% inhibition of bacterial growth

SMILES	IC50
C=C1CC/C=C(\C)CC[C@@H]2[C@@H]1CC2(C)C [β-Caryophyllene]	> 200 µg/mL
CC1=CCC(O)(C(C)C)CC1 (centres unmarked) [Terpinen-4-ol]	> 200 µg/mL
C=C1CCC2CC1C2(C)C (stereo not drawn) [β-Pinene]	> 200 µg/mL

Further lines, results first:

IC50	SMILES
> 200 µg/mL	CC1(C)C2CCC1(C)C(O)C2 (centres unmarked) [Borneol]
22 to 26 µg/mL (≈ 145 to 171 µM)	CC12CCC(CC1=O)C2(C)C (centres unmarked) [Camphor]
> 200 µg/mL	CC12CCC(CC1)C(C)(C)O2 [1,8-Cineole]

Same assay, conditions: Staphylococcus aureus, ATCC25923; read-out: Antibacterial IC50 S. aureus

SMILES	IC50
CC1=CC=C(C(C)C)CC1 [α-Terpinene]	> 200 µg/mL
CC1=CCC(C(C)C)=CC1 [γ-Terpinene]	50 ± 9 µg/mL (≈ 367 µM)

Tested on: not listed separately
Assay: Cytotoxic assay, resazurin reduction test, 48 h
Type: cell-based, human
Conditions: human, A-549 lung carcinoma cells; A-549, 48 h; read-out: Cytotoxicity IC50 A549
Experimental: (§2) We plated in 96-well microplates—each containing a 100 µL culture medium—exponentially growing cells of human skin fibroblasts WS1, human HaCaT keratinocytes, human lung carcinoma A-549, and human colon adenocarcinoma DLD-1 at a density of 5 × 10^3 cells per well (Costar, Corning Inc., Lowell, MA, USA). The cells were allowed to adhere for 16 h before treatment. We then treated cells with T. vulgare essential oil or dissolved compounds in DMSO. The final concentration of DMSO in the culture medium was 0.5% (v/v) to avoid solvent toxicity. After 48 h, we assessed the cytotoxicity using the resazurin reduction test. Fluorescence was measured on an automated Fluoroskan Ascent FL^TM plate reader (Labsystems, Milford, MA, USA) using an excitation wavelength of 530 nm and an emission wavelength of 590 nm.

SMILES	IC50 at 48 h
CC1(C)C2CCC1(C)C(O)C2 (centres unmarked) [Borneol]	> 200 µg/mL
C=C1CC/C=C(\C)CC[C@@H]2[C@@H]1CC2(C)C [β-Caryophyllene]	55 ± 5 µg/mL (≈ 269 µM)
CC1=CCC2CC1C2(C)C (stereo not drawn) [α-Pinene]	35 ± 6 µg/mL (≈ 257 µM)
CC12CCC(CC1=O)C2(C)C (centres unmarked) [Camphor]	> 200 µg/mL
CC1=CCC(O)(C(C)C)CC1 (centres unmarked) [Terpinen-4-ol]	> 200 µg/mL
CC12CCC(CC1)C(C)(C)O2 [1,8-Cineole]	> 200 µg/mL

Same assay, conditions: human, DLD-1 colon adenocarcinoma cells; DLD-1, 48 h; read-out: Cytotoxicity IC50 DLD1

SMILES	IC50 at 48 h
CC1(C)C2CCC1(C)C(O)C2 (centres unmarked) [Borneol]	> 200 µg/mL
C=C1CC/C=C(\C)CC[C@@H]2[C@@H]1CC2(C)C [β-Caryophyllene]	97 ± 6 µg/mL (≈ 475 µM)
CC1=CCC2CC1C2(C)C (stereo not drawn) [α-Pinene]	58 ± 18 µg/mL (≈ 426 µM)
CC12CCC(CC1=O)C2(C)C (centres unmarked) [Camphor]	> 200 µg/mL
CC1=CCC(O)(C(C)C)CC1 (centres unmarked) [Terpinen-4-ol]	> 200 µg/mL
CC12CCC(CC1)C(C)(C)O2 [1,8-Cineole]	> 200 µg/mL

Same assay, conditions: human, WS1 skin fibroblasts; WS1, 48 h; read-out: Cytotoxicity IC50 WS1

SMILES	IC50 at 48 h
CC1(C)C2CCC1(C)C(O)C2 (centres unmarked) [Borneol]	> 200 µg/mL
C=C1CC/C=C(\C)CC[C@@H]2[C@@H]1CC2(C)C [β-Caryophyllene]	59 ± 7 µg/mL (≈ 289 µM)
CC1=CCC2CC1C2(C)C (stereo not drawn) [α-Pinene]	57 ± 4 µg/mL (≈ 418 µM)
CC12CCC(CC1=O)C2(C)C (centres unmarked) [Camphor]	> 200 µg/mL
CC1=CCC(O)(C(C)C)CC1 (centres unmarked) [Terpinen-4-ol]	> 200 µg/mL
CC12CCC(CC1)C(C)(C)O2 [1,8-Cineole]	> 200 µg/mL

Same assay, conditions: human; A-549, 48 h; read-out: Cytotoxicity IC50 A549

SMILES	IC50 at 48 h
CC1=CC=C(C(C)C)CC1 [α-Terpinene]	63 ± 10 µg/mL (≈ 462 µM)
CC1=CCC(C(C)C)=CC1 [γ-Terpinene]	112 ± 15 µg/mL (≈ 822 µM)
C=C1CCC2CC1C2(C)C (stereo not drawn) [β-Pinene]	43 ± 4 µg/mL (≈ 316 µM)

Same assay, conditions: human; DLD-1, 48 h; read-out: Cytotoxicity IC50 DLD1

SMILES	IC50 at 48 h
CC1=CC=C(C(C)C)CC1 [α-Terpinene]	73 ± 7 µg/mL (≈ 536 µM)
CC1=CCC(C(C)C)=CC1 [γ-Terpinene]	> 200 µg/mL
C=C1CCC2CC1C2(C)C (stereo not drawn) [β-Pinene]	49.4 ± 0.3 µg/mL (≈ 363 µM)

Same assay, conditions: human; WS1, 48 h; read-out: Cytotoxicity IC50 WS1

SMILES	IC50 at 48 h
CC1=CC=C(C(C)C)CC1 [α-Terpinene]	53 ± 12 µg/mL (≈ 389 µM)
CC1=CCC(C(C)C)=CC1 [γ-Terpinene]	82 ± 15 µg/mL (≈ 602 µM)
C=C1CCC2CC1C2(C)C (stereo not drawn) [β-Pinene]	29 ± 14 µg/mL (≈ 213 µM)

Tested on: not listed separately
Assay: in vitro
Conditions: human
Experimental: as §2
We assessed the cytotoxic activity of T. vulgare essential oil and its main compounds against human lung carcinoma A-549, colon adenocarcinoma DLD-1, human keratinocytes HaCaT, and healthy WS1 cell lines.

SMILES	IC50 at 48 h
C=C1CC/C=C(\C)CC[C@@H]2[C@@H]1CC2(C)C [β-Caryophyllene]	28 to 112 µg/mL (≈ 137 to 548 µM)
CC1=CC=C(C(C)C)CC1 [α-Terpinene]	28 to 112 µg/mL (≈ 206 to 822 µM)
CC1=CCC(C(C)C)=CC1 [γ-Terpinene]	28 to 112 µg/mL (≈ 206 to 822 µM)
C=C1CCC2CC1C2(C)C (stereo not drawn) [β-Pinene]	28 to 112 µg/mL (≈ 206 to 822 µM)

Next, values leading:

IC50 at 48 h	SMILES
> 200 µg/mL	CC1(C)C2CCC1(C)C(O)C2 (centres unmarked) [Borneol]
28 to 112 µg/mL (≈ 206 to 822 µM)	CC1=CCC2CC1C2(C)C (stereo not drawn) [α-Pinene]
> 200 µg/mL	CC12CCC(CC1=O)C2(C)C (centres unmarked) [Camphor]
> 200 µg/mL	CC12CCC(CC1)C(C)(C)O2 [1,8-Cineole]
